Tests used:
MMT/MCLT rat model of OA [1] = test: MMT/MCLT trial 1 weight bearing (daily morphine 10 mg/kg, tacrolimus 0.3 or 0.6 mg/kg, fluocinolone 5 or 10 μg/kg, clonidine 100 μg/kg, alendronate 10 μg/kg i.p.; curcumin, withaferin 50 mg/kg p.o.); type: in vivo; conditions: low or only dose
Experimental: Weight bearing (WB; incapacitance) was measured five times per day, once per week, using a Linton incapacitance meter (Stoelting Co., Wood Dale, IL, USA). Rats were acclimated to the meter before study initiation, and, similarly, immediately before WB, the animals were placed in the meter and allowed to acclimate for 2–5 minutes. Each hind paw was placed on a separate force plate so that the force exerted by each side could be averaged over a 5-second interval, and the mean of three readings was taken for each data point. Right paw force was compared with that on the left side for each group to confirm that animals were displaying incapacitance and/or pain behavior. Differences in force (left minus right) and right paw force as a percentage of the total force exerted by both paws were determined and compared between groups.
Following isoflurane anesthesia, the medial collateral ligament was transected just below its attachment to the meniscus in the right knee. The meniscus was cut at its narrowest point away from the ossicles so as not to damage the tibial surface and to ensure that the anterior and posterior meniscus halves were freely movable. […] In trial 2, drugs were administered IA weekly beginning 1 week following surgery. Three weeks postsurgery, animals were humanely killed and their right knees were collected for histopathology. All studies were conducted in accordance with the International Association for the Study of Pain Guidelines and were approved by the Bolder BioPATH IACUC (Boulder, CO, USA) in compliance with regulations before study initiation (IACUC protocol BBP03-006). Those running the studies were blinded to the treatments. See Additional file 1 for further details.
Isoflurane and the right knee area prepared for surgery. A skin incision was made over the medial aspect of the knee and the medial collateral ligament was exposed by blunt dissection and then transected. The medial meniscus was cut through the full thickness to simulate a complete tear and the skin was then closed with suture.
All pharmaceutical agents were prepared and stored as recommended by the supplier. Daily drug preparations were made fresh from stock solutions. […]
In Trial 2 drugs were […]
administered IA weekly beginning one week following surgery. […]
were delivered by gavage and were prepared in 0.3% Methyl Cellulose.
WB was measured five times a day, once a week, using a Linton incapacitance meter (Stoelting Co.) to assess pain behavior. Rats were acclimated to the incapacitance meter prior to study initiation.
Similarly, immediately prior to WB animals were placed in the incapacitance meter and allowed to acclimate for 2-5 minutes. Each hind paw was placed on a separate force plate so that the force exerted by each side could be averaged over a 5 second interval and the mean of three readings taken for each data point. Right paw force was compared to left for each group to confirm that animals were displaying incapacitance / pain behavior. Difference in force (left minus right) and right paw force as a percentage of the total force exerted by both paws were determined and compared between groups. Three weeks after surgery, animals were humanely euthanized and right knees collected for histopathology evaluation.
Figure 2. MMT/MCLT Trial Timeline […]
MMT/MCLT Dosing (once/day)
The study design and animal usage was approved by Bolder BioPATH’s Institutional Animal Care and Use Committee (IACUC) for compliance with regulations prior to study initiation (IACUC […]
Labs. Animals were identified by a distinct mark at the base of the tail delineating group and animal number. After randomization, all cages were labeled with protocol number, group numbers, and animal numbers with appropriate color-coding (see protocol).

MMT/MCLT rat model of OA [2] = test: MMT/MCLT trial 2 histopathology (same doses); type: in vivo; parameters: key to Total joint score w/o femur / Total joint score: sum: cartilage degeneration scores + mean osteophyte score; conditions: for Femoral cartilage degeneration score / Total joint score: mean
Text: For MMT/MCLT rat knee joints, sections were cut in 200-μm steps; stained with toluidine blue (also with a right and left half per section); and similarly analyzed for cartilage degeneration, proteoglycan loss, collagen damage, and osteophyte formation. Results were averaged across the three sections for an overall semiquantitative score. Regional differences across the tibial plateau were taken into consideration by dividing each section into three zones delineated using an ocular micrometer (outside, middle, and inside). Scores were based on the percentage of area affected within the zone.
Cartilage degeneration in the tibia was scored on a 5-point scale as detailed in the Methods section of Additional file 1. The total extent of degeneration of the tibial plateau was measured (in micrometers) and included an analysis of cell loss, proteoglycan loss, and collagen damage. Significant cartilage degeneration reflecting any degeneration extending through more than 50 % of the cartilage thickness was also measured. Collagen damage across the medial tibial plateau (the most severely affected section of the two halves) was also quantified.
Osteophytes and femoral cartilage degeneration were analyzed as detailed in Additional file 1. Scoring of the osteophytes and categorization into small, medium, and large was performed using an ocular micrometer. The actual osteophyte measurement (tidemark to farthest distance point extending toward the synovium) was also recorded. The femoral cartilage degeneration score and the three-zone sum of the tibial cartilage degeneration scores (mean of three levels) were summed to create a total cartilage degeneration score. The mean osteophyte score for each joint was added to this value to create a total joint score. […]
Histopathology MMT/MCLT Model

HeLa cells = test: HeLa cell viability (CellTiter-Glo)
Summary of the method: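 HeLa cells with and without drug were tested for viability by CellTiter-Glo luminescence as a toxicity read-out. In the companion NF-κB reporter assay, cells co-transfected with NF-κB firefly and Renilla luciferase plasmids (8:1) were read by Dual-Glo 5 h later, normalized to viable cells and expressed as fold over unstimulated, untreated cells.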

[3] = tacrolimus 30 ng i.a., clonidine 100 μg/kg s.c.

| SMILES | Weight bearing, hours with significant effect (MMT/MCLT rat model of OA [1]; day 7) | Femoral cartilage degeneration score (MMT/MCLT rat model of OA [2]; i.a., tacrolimus 15 ng) | Total joint score (MMT/MCLT rat model of OA [2]; i.a., tacrolimus 15 ng) | Femoral cartilage degeneration score (MMT/MCLT rat model of OA [2]; [3]) | Total joint score (MMT/MCLT rat model of OA [2]; [3]) | Non-toxic concentrations (HeLa cells) | % decrease, tibial score zone 2 (MMT/MCLT rat model of OA [2]; vs saline group, i.a., tacrolimus 15 ng, curcumin 30 μg) | Weight bearing, hours with significant effect (MMT/MCLT rat model of OA [1]; day 14) | Weight bearing, hours with significant effect (MMT/MCLT rat model of OA [1]; day 21) |
| --- | --- | --- | --- | --- | --- | --- | --- | --- | --- |
| Clc1cccc(Cl)c1N=C1NCCN1 [Clonidine] | 1 h | 0.67 ± 0.23 | 9.13 ± 0.54 | 0.77 ± 0.28 | 11.03 ± 0.61 |  |  |  |  |
| COc1cc(/C=C/C(=O)CC(=O)/C=C/c2ccc(O)c(OC)c2)ccc1O [Curcumin, Diferuloylmethane] |  | 1.63 ± 0.61 | 9.57 ± 0.91 |  |  | 0 to 33.75 M | 40% |  |  |
| CC1(C)O[C@@H]2C[C@H]3[C@@H]4C[C@H](F)C5=CC(=O)C=C[C@]5(C)[C@@]4(F)[C@@H](O)C[C@]3(C)[C@]2(C(=O)CO)O1 [Fluocinolone, Fluocinolone Acetonide] | 5 h | 0.8 ± 0.25 | 9.80 ± 0.51 |  |  |  |  | 1,3 h | 1 h |

From paper PMC4721142, “Randomized controlled studies on the efficacy of antiarthritic agents in inhibiting cartilage degeneration and pain associated with progression of osteoarthritis in the rat” (Arthritis Research & Therapy, 2016)
